Measured values published in paper PMC9516332 (Frontiers in Oncology, 2022).
pIC50: −log10 of the molar value. Like-named read-outs stand apart in the source and are kept apart here.

Tests used:
[1] = target: T1, panel of 255 wild-type kinases (Homo sapiens, UniProt Q8IW41); assay: Kinase panel profiling at 1 µmol/L (MSA or IMAP), percentage inhibition; type: biochemical; conditions: MAPKAPK5; 1 µmol/L single concentration; read-out: %-inhibition, MAPKAPK5
T1 sequence (Q8IW41 1-473): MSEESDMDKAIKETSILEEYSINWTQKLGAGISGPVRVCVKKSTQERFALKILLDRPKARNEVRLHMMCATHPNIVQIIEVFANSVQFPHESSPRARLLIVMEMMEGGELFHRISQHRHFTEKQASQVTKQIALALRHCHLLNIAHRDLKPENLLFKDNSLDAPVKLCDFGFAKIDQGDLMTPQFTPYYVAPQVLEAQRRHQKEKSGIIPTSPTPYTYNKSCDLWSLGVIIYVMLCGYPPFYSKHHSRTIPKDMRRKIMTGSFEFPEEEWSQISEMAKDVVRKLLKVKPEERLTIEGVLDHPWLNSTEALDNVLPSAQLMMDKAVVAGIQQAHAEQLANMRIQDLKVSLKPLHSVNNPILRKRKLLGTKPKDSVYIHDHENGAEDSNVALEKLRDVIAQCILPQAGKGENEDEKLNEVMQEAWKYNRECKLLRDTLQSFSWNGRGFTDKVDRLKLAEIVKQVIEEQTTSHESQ

[2] = target: panel of 255 wild-type kinases (Homo sapiens, UniProt P45983); assay: as above; type: biochemical; conditions: kinase JNK1; 1 µmol/L single concentration; read-out: %-inhibition at 1 µmol/L, JNK1
134 cancer cell lines = assay: Cell viability assay (ATPlite, 72 hours), IC50 on cancer cell line panel

- inhibition at 1 µM [1]: -1.78%
- inhibition at 1 µM [2]: -5.39%
- pIC50 (134 cancer cell lines; HEC-6, read-out: IC50 in cell proliferation assay, HEC-6 cell line (EGFR p.A289V)): < 4.50
- pIC50 (134 cancer cell lines; Homo sapiens, 769-P, read-out: IC50 in cell proliferation assay, cell line 769-P): 5.24
- pIC50 (134 cancer cell lines; Homo sapiens, 786-0, read-out: IC50 in cell proliferation assay, cell line 786-O): 5.12
- pIC50 (134 cancer cell lines; Homo sapiens, A 172, read-out: IC50 in cell proliferation assay, cell line A-172): 5.88
- pIC50 (134 cancer cell lines; Homo sapiens, A204, read-out: IC50 in cell proliferation assay, cell line A-204): 5.61
- pIC50 (134 cancer cell lines; Homo sapiens, A498, read-out: IC50 in cell proliferation assay, cell line A-498): 5.20
- pIC50 (134 cancer cell lines; Homo sapiens, A549, read-out: IC50 in cell proliferation assay, cell line A-549): 5.43
- pIC50 (134 cancer cell lines; Homo sapiens, A704, read-out: IC50 in cell proliferation assay, cell line A-704): 5.56
- pIC50 (134 cancer cell lines; Homo sapiens, A-375, read-out: IC50 in cell proliferation assay, cell line A-375 (BRAF p.V600E)): 5.37
- pIC50 (134 cancer cell lines; Homo sapiens, A-427, read-out: IC50 in cell proliferation assay, cell line A-427): 5.82
- pIC50 (134 cancer cell lines; Homo sapiens, ACHN, read-out: IC50 in cell proliferation assay, cell line ACHN): 5.56
- pIC50 (134 cancer cell lines; Homo sapiens, AN3-CA, read-out: IC50 in cell proliferation assay, cell line AN3-CA (FGFR2 p.N549K)): 6.24
- pIC50 (134 cancer cell lines; Homo sapiens, ASPC1, read-out: IC50 in cell proliferation assay, cell line AsPC-1): < 4.50
- pIC50 (134 cancer cell lines; Homo sapiens, AU565, read-out: IC50 in cell proliferation assay, cell line AU565 (ERBB2 amplification)): 5.54
- pIC50 (134 cancer cell lines; Homo sapiens, BT-20, read-out: IC50 in cell proliferation assay, cell line BT-20): 5.47
- pIC50 (134 cancer cell lines; Homo sapiens, BT-474, read-out: IC50 in cell proliferation assay, cell line BT-474 (ERBB2 amplification)): 4.54
- pIC50 (134 cancer cell lines; Homo sapiens, BT-549, read-out: IC50 in cell proliferation assay, cell line BT-549): 5.42
- pIC50 (134 cancer cell lines; Homo sapiens, BXPC-3, read-out: IC50 in cell proliferation assay, cell line BxPC-3): 5.40
- pIC50 (134 cancer cell lines; Homo sapiens, C-33-A, read-out: IC50 in cell proliferation assay, cell line C-33 A): 5.55
- pIC50 (134 cancer cell lines; Homo sapiens, CAL-27, read-out: IC50 in cell proliferation assay, cell line CAL-27): 5.36
- pIC50 (134 cancer cell lines; Homo sapiens, CCF-STTG1, read-out: IC50 in cell proliferation assay, cell line CCF-STTG1): 5.10
- pIC50 (134 cancer cell lines; Homo sapiens, CCRF-CEM, read-out: IC50 in cell proliferation assay, cell line CCRF-CEM): 5.46
- pIC50 (134 cancer cell lines; Homo sapiens, COLO 205, read-out: IC50 in cell proliferation assay, cell line COLO 205 (BRAF p.V600E)): 5.35
- pIC50 (134 cancer cell lines; Homo sapiens, COLO-829, read-out: IC50 in cell proliferation assay, cell line COLO 829 (BRAF p.V600E)): 4.97
- pIC50 (134 cancer cell lines; Homo sapiens, DLD-1, read-out: IC50 in cell proliferation assay, cell line DLD-1): 5.07
- pIC50 (134 cancer cell lines; Homo sapiens, DU-4475, read-out: IC50 in cell proliferation assay, cell line DU4475 (BRAF p.V600E)): 5.20
- pIC50 (134 cancer cell lines; Homo sapiens, Daoy, read-out: IC50 in cell proliferation assay, cell line Daoy): 5.50
- pIC50 (134 cancer cell lines; Homo sapiens, DoTc2-4510, read-out: IC50 in cell proliferation assay, cell line DoTc2 4510): 5.38
- pIC50 (134 cancer cell lines; Homo sapiens, EOL1, read-out: IC50 in cell proliferation assay, cell line EoL-1 (FIP1L1-PDGFRA)): 6.54
- pIC50 (134 cancer cell lines; Homo sapiens, FaDu, read-out: IC50 in cell proliferation assay, cell line FaDu): 5.32
- pIC50 (134 cancer cell lines; Homo sapiens, G-361, read-out: IC50 in cell proliferation assay, cell line G-361 (BRAF p.V600E)): 5.23
- pIC50 (134 cancer cell lines; Homo sapiens, HCC827, read-out: IC50 in cell proliferation assay, cell line HCC827 (EGFR exon19del)): 4.87
- pIC50 (134 cancer cell lines; Homo sapiens, HCC4006, read-out: IC50 in cell proliferation assay, cell line HCC4006 (EGFR exon19del)): 5.17
- pIC50 (134 cancer cell lines; Homo sapiens, HCT-15, read-out: IC50 in cell proliferation assay, cell line HCT 15): 4.97
- pIC50 (134 cancer cell lines; Homo sapiens, HCT-116, read-out: IC50 in cell proliferation assay, cell line HCT 116): 4.83
- pIC50 (134 cancer cell lines; Homo sapiens, HEC-1, read-out: IC50 in cell proliferation assay, HEC-1 cell line): 5.05
- pIC50 (134 cancer cell lines; Homo sapiens, HEC-1B, read-out: IC50 in cell proliferation assay, HEC-1-B cell line (EGFR p.A864V)): 5.68
- pIC50 (134 cancer cell lines; Homo sapiens, HL-60, read-out: IC50 in cell proliferation assay, HL-60 cell line): 5.24
- pIC50 (134 cancer cell lines; Homo sapiens, HT, read-out: IC50 in cell proliferation assay, HT cell line): 5.31
- pIC50 (134 cancer cell lines; Homo sapiens, HT-1080, read-out: IC50 in cell proliferation assay, HT-1080 cell line): 5.29
- pIC50 (134 cancer cell lines; Homo sapiens, Hs746T, read-out: IC50 in cell proliferation assay, Hs 746.T cell line (MET exon14skip + amplification)): 4.55
- pIC50 (134 cancer cell lines; Homo sapiens, Hs-578T, read-out: IC50 in cell proliferation assay, Hs 578T cell line): 5.44
- pIC50 (134 cancer cell lines; Homo sapiens, HuTu80, read-out: IC50 in cell proliferation assay, HuTu 80 cell line): 5.87
- pIC50 (134 cancer cell lines; Homo sapiens, J82, read-out: IC50 in cell proliferation assay, J82 cell line): 5.48
- pIC50 (134 cancer cell lines; Homo sapiens, Jurkat E6.1, read-out: IC50 in cell proliferation assay, Jurkat E6.1 cell line): 5.39
- pIC50 (134 cancer cell lines; Homo sapiens, K562, read-out: IC50 in cell proliferation assay, K-562 cell line): 5.26
- pIC50 (134 cancer cell lines; Homo sapiens, KATO III, read-out: IC50 in cell proliferation assay, KATO III cell line (FGFR2 amplification)): 6.62
- pIC50 (134 cancer cell lines; Homo sapiens, KG-1, read-out: IC50 in cell proliferation assay, KG-1 cell line (FGFR1OP2-FGFR1)): 6.64
- pIC50 (134 cancer cell lines; Homo sapiens, KLE, read-out: IC50 in cell proliferation assay, KLE cell line): 5.25
- pIC50 (134 cancer cell lines; Homo sapiens, KMS-11, read-out: IC50 in cell proliferation assay, KMS-11 cell line (FGFR3 p.Y373C)): 6.18
- pIC50 (134 cancer cell lines; Homo sapiens, KU812, read-out: IC50 in cell proliferation assay, Ku812 cell line): 5.45
- pIC50 (134 cancer cell lines; Homo sapiens, Kasumi 1, read-out: IC50 in cell proliferation assay, Kasumi-1 cell line (KIT p.N822K)): 6.56
- pIC50 (134 cancer cell lines; Homo sapiens, LC-2-ad, read-out: IC50 in cell proliferation assay, LC-2/ad cell line (CCDC6-RET)): 7.74
- pIC50 (134 cancer cell lines; Homo sapiens, LNCaP-Clone-FGC, read-out: IC50 in cell proliferation assay, LNCaP clone FGC cell line): 4.78
- pIC50 (134 cancer cell lines; Homo sapiens, LS174T, read-out: IC50 in cell proliferation assay, LS174T cell line): 5.38
- pIC50 (134 cancer cell lines; Homo sapiens, LS-411N, read-out: IC50 in cell proliferation assay, LS411N cell line (BRAF p.V600E)): 5.43
- pIC50 (134 cancer cell lines; Homo sapiens, LoVo, read-out: IC50 in cell proliferation assay, LoVo cell line): 6.12
- pIC50 (134 cancer cell lines; Homo sapiens, MCF7, read-out: IC50 in cell proliferation assay, MCF-7 cell line): < 4.50
- pIC50 (134 cancer cell lines; Homo sapiens, MDA-MB-231, read-out: IC50 in cell proliferation assay, MDA-MB-231 cell line): 4.55
- pIC50 (134 cancer cell lines; Homo sapiens, MDA-MB-453, read-out: IC50 in cell proliferation assay, MDA-MB-453 cell line): < 4.50
- pIC50 (134 cancer cell lines; Homo sapiens, MDA-MB-468, read-out: IC50 in cell proliferation assay, MDA-MB-468 cell line): 5.26
- pIC50 (134 cancer cell lines; Homo sapiens, MG-63, read-out: IC50 in cell proliferation assay, MG-63 cell line): 5.51
- pIC50 (134 cancer cell lines; Homo sapiens, MIA PaCa-2, read-out: IC50 in cell proliferation assay, MIA PaCa-2 cell line): 5.47
- pIC50 (134 cancer cell lines; Homo sapiens, MKN-45, read-out: IC50 in cell proliferation assay, MKN45 cell line (MET amplification)): < 4.50
- pIC50 (134 cancer cell lines; Homo sapiens, MOLM-13, read-out: IC50 in cell proliferation assay, MOLM-13 cell line (FLT3 ITD)): 6.91
SMILES: COc1ccc(CN2C3CC2CN(c2ccc(-c4cc(OCC(C)(C)O)cn5ncc(C#N)c45)cn2)C3)cn1 [selpercatinib]
